Counter-ions that a name gives are not always drawn. Like-named read-outs stand apart in the source and are kept apart here. Marks after values point to notes of the source that are not given here.
Legend:
VZV-BAC-Luc [1] = assay type: in vivo, varicella-zoster virus; details: SCID-Hu mice
[2] = tested on: human foreskin fibroblasts (HFFs); assay: Neutral red cytotoxicity assay in HFFs; assay type: cell-based
VZV-BAC-Luc [3] = assay: microbe, parasite or virus in culture; assay type: cell-based, varicella-zoster virus; details: for SI (CC50/EC50): selectivity index in HFFs
VZV-BAC-Luc [4] = assay: VZV-BAC-Luc in skin organ culture; assay type: cell-based, varicella-zoster virus; details: read-out: EC50 in SOC; 6 dpi, bioluminescence imaging, mean ± SD
VZV-BAC-Luc [5] = assay: Drug synergy assay; assay type: cell-based, varicella-zoster virus; details: HFFs, 48 h, VZV yield by bioluminescence
[6] = for Ratio to Plasma: 2 h post final treatment
VZV-BAC-Luc [7] = assay: VZV yield in HFFs by quantitative real-time PCR; assay type: cell-based, varicella-zoster virus
5-FU catabolism = assay: LC-MS/MS analysis of 5-fluorouracil metabolism in mice; assay type: in vivo, BALB/c mice; details: for 5-FU concentration in plasma: 5-FU 30 mg/kg i.v. plus test drug 10 mg/kg p.o.

For `CC(C)[C@H](N)C(=O)OCCOCn1cnc2c(=O)[nH]c(N)nc21` [VACV, Valacyclovir HCl, reference compound], the “ABWD (±SD), Average Body Weight Difference from Days 0–7” value (120 mg/kg/day) was −2.9 (1.2) ^* grams, the Mortality (120 mg/kg/day) was 0/11 and the “ABWD (±SD), Average Body Weight Difference from Days 0–7” value (200 mg/kg/day) was −3.6 (1.5) ^* grams. For the same compound, the Mortality (200 mg/kg/day) was 0/10, the “Ave. VZV Growth Rate (± SD)” value (VZV-BAC-Luc [1]; 120 mg/kg/day oral gavage) was 0.40 (0.09) Log10(photons/s/day) and the “effect on VZV replication” value (VZV-BAC-Luc [1]; 120 mg/kg/day) was “had no effect on VZV replication”. The “Ave. VZV Growth Rate (± SD)” value (VZV-BAC-Luc [1]; 200 mg/kg/day oral gavage) was 0.27 (0.07) ^* Log10(photons/s/day) and the “Ave. VZV Growth Rate (± SD)” value (VZV-BAC-Luc [1]; 200 mg/kg/day oral gavage, listed as Valacyclovir) was 0.27 ± 0.07 Log10(photons/s/day).
In the case of `Nc1nc2c(ncn2COCCO)c(=O)[nH]1` [ACV, Acyclovir, reference compound], the Mortality (120 mg/kg/day) is reported as 0/11.
In the case of `O=c1ccn(C2OC(CO)OC2/C=C/Br)c(=O)[nH]1` [L-BHDU (1), β-L-1-[5-(E-2-Bromovinyl)-2-(hydroxymethyl)-1,3-(dioxolan-4-yl)] uracil], the “cytotoxicity at 200 μM” value ([2]; 200 μM, 3 days) is reported as “noncytotoxic”, the CC50 ([2]; 72 h, neutral red assay) is reported as > 200000 nM and the Mortality (8 mg/kg/day) is reported as 1/5. For the same compound, the Mortality (15 mg/kg/day) was 0/5, the Mortality (150 mg/kg/day) was 0/5 and the “overt toxicity in vivo” value (mouse, in vivo) was “No overt toxicity”. The weight loss (mouse, in vivo) was “moderate weight loss”, the EC50 (VZV-BAC-Luc [3]; read-out: EC50 in HFFs, 48 hpi, bioluminescence imaging, mean ± SD) was 220 ± 10 nM and the “SI (CC50/EC50)” value (VZV-BAC-Luc [3]) was >909. For the same compound, the “SI (CC50/EC50)” value (VZV-BAC-Luc [3]; listed as L-BHDU) was > 909, the EC50 (VZV-BAC-Luc [4]) was 240 ± 20 nM and the “interaction with ACV, BVdU and PFA” value (VZV-BAC-Luc [5]) was “antagonized the activity of ACV, BVdU and foscarnet”. The “concentration in human skin implants relative to EC50” value ([6]; 8 mg/kg/day) was 10 fold, the “Ratio to Plasma” value ([6]; Brain, 8 mg/kg/day) was 0.4 (0.3) and the “Ratio to Plasma” value ([6]; Brain, 150 mg/kg/day) was 0.1 (0.03). For the same compound, the “Ratio to Plasma” value ([6]; Heart, 8 mg/kg/day) was 2.9 (2.5), the “Ratio to Plasma” value ([6]; Heart, 150 mg/kg/day) was 1.0 (0.2) and the “Ratio to Plasma” value ([6]; Kidney, 8 mg/kg/day) was 5.1 (3.1). The “Ratio to Plasma” value ([6]; Kidney, 150 mg/kg/day) was 2.1 (0.4), the “Ratio to Plasma” value ([6]; Liver, 8 mg/kg/day) was 4.5 (1.1) and the “Ratio to Plasma” value ([6]; Liver, 150 mg/kg/day) was 1.5 (0.3). For the same compound, the “Ratio to Plasma” value ([6]; Lung, 8 mg/kg/day) was 11.2 (5.7), the “Ratio to Plasma” value ([6]; Lung, 150 mg/kg/day) was 2.3 (0.5) and the “Ratio to Plasma” value ([6]; Plasma, 8 mg/kg/day) was 1. For the same compound, the “Ratio to Plasma” value ([6]; Plasma, 150 mg/kg/day) was 1, the “Ratio to Plasma” value ([6]; Skin (Human) xenograft, 8 mg/kg/day) was 3.1 (2.6) and the “Ratio to Plasma” value ([6]; Skin (Mouse), 8 mg/kg/day) was 3.0 (2.5). For the same compound, the “Ratio to Plasma” value ([6]; Skin (Mouse), 150 mg/kg/day) was 0.9 (0.2), the “Ratio to Plasma” value ([6]; Spleen, 8 mg/kg/day) was 2.1 (1.3) and the “Ratio to Plasma” value ([6]; Spleen, 150 mg/kg/day) was 1.4 (0.2). For the same compound, the “VZV genome copy number” value (VZV-BAC-Luc [7]) was “reduced VZV genome copy number”, the EC50 (VZV-BAC-Luc [7]; read-out: EC50 determined by qPCR, VZV genomes) was ~70 nM and the “Ave. VZV Growth Rate (± SD)” value (VZV-BAC-Luc [1]; 8 mg/kg/day oral gavage) was 0.33 (0.03) Log10(photons/s/day). For the same compound, the “Ave. VZV Growth Rate (± SD)” value (VZV-BAC-Luc [1]; 8 mg/kg/day oral gavage, listed as L-BHDU) was 0.33 ± 0.03 Log10(photons/s/day), the “Ave. VZV Growth Rate (± SD)” value (VZV-BAC-Luc [1]; 15 mg/kg/day oral gavage) was 0.25 (0.09) ^* Log10(photons/s/day) and the “Ave. VZV Growth Rate (± SD)” value (VZV-BAC-Luc [1]; 15 mg/kg/day oral gavage, listed as L-BHDU) was 0.25 ± 0.9 Log10(photons/s/day). For the same compound, the “Ave. VZV Growth Rate (± SD)” value (VZV-BAC-Luc [1]; 150 mg/kg/day oral gavage) was 0.22 (0.06) ^* Log10(photons/s/day) and the “Ave. VZV Growth Rate (± SD)” value (VZV-BAC-Luc [1]; 150 mg/kg/day oral gavage, listed as L-BHDU) was 0.22 ± 0.6 Log10(photons/s/day).
In the case of `O=c1[nH]cc(F)c(=O)[nH]1` [5-FU, 5-fluorouracil], the “5-FU in plasma (average AUC)” value (5-FU catabolism; 30 min, 5-FU alone 30 mg/kg i.v.) is reported as 1246 nM and the 5-FU in plasma (5-FU catabolism; 60 min, 5-FU alone 30 mg/kg i.v.) is reported as “undetectable”.
For `O=c1[nH]c(=O)n([C@H]2C[C@H](O)[C@@H](CO)O2)cc1/C=C/Br` [BVdU, (E)-5-(2-Bromovinyl)-2′-deoxyuridine], the “5-FU concentration in plasma” value (5-FU catabolism; 30 min) was 945 nM, the “5-FU concentration in plasma” value (5-FU catabolism; 60 min) was 685 nM and the “effect on 5-FU catabolism” value (5-FU catabolism; mice, 10 mg/kg p.o. with 5-FU 30 mg/kg i.v.) was “interfered with 5-FU catabolism”.
Compound `O=C(O)P(=O)(O)O` [PFA, sodium phosphonoformate tribasic hexahydrate, reference compound] has an EC50 (VZV-BAC-Luc [3]; Human alphaherpesvirus 3, read-out: EC50 in HFFs) of 40000 nM.

From PMC4171207 (Antiviral research, 2014)
